Data set [1] can be described thus: Solubility in aqueous buffers of varying pH. It counts as physicochemical. The note with it: for solubility: ambient temperature, compound 1 as acetate salt. As to the method: The solubility of compound 1 (acetate salt) was measured in aqueous buffers of varying pH to assess this compound's suitability for formulation in an aqueous carrier for administration by injection (e.g., intravenous or intramuscular injection).

Data set [2] is described as follows: Solubility in non-aqueous solvents. It counts as physicochemical. The note with it: organic solvent or mixture, compound 1 as acetate salt. As to the method:
The solubility of compound 1 (acetate salt) was also measured in non-aqueous solvents to assess this compound's suitability for formulation in non-aqueous carriers.

In data set [3] the test system is Aspergillus spp. Description: MEC and MIC values versus Aspergillus spp. It counts as cell-based. The note with it: 48 h; presence and absence of 50% human serum. The protocol: MEC and MIC values (μg/mL) of anidulafungin, caspofungin, amphotericin B, compound 1, and compound 16 against various Aspergillus species in the presence and absence of 50% human serum were obtained as follows.
Test organisms were obtained from the American Type Culture Collection (Manassas, Va.). The isolates were maintained at −80° C., then thawed and sub-cultured prior to testing. […]
Standardized inoculum of Aspergillus was prepared per CLSI methods. […] After a short time to allow the heavy particles to settle out, a small quantity of the supernatant was dispensed into RPMI and the suspension adjusted to equal 0.5 McFarland turbidity. […]
Plates were covered with a lid, placed in plastic bags, and incubated at 35° C. The Aspergillus plates were incubated for 48 h before reading. […]
Both an MIC and Minimal Effective Concentration (MEC) value was recorded. […]

Turning to `CCCCCOc1ccc(-c2ccc(-c3ccc(C(=O)N[C@H]4C[C@@H](O)C(OCC[N+](C)(C)C)NC(=O)C5[C@@H](O)[C@@H](C)CN5C(=O)C([C@@H](C)O)NC(=O)C([C@H](O)[C@@H](O)c5ccc(O)cc5)NC(=O)C5C[C@@H](O)CN5C(=O)C([C@@H](C)O)NC4=O)cc3)cc2)cc1` (some centres unmarked) [compound 1], the solubility is above 15 mg/mL in data set [1] (aqueous buffer, pH 3 (0.01M formate buffer)); above 15 mg/mL in data set [1] (aqueous buffer, pH 4.6 (0.1M acetate buffer)); above 15 mg/mL in data set [1] (aqueous buffer, pH 5.6 (0.1M acetate buffer)); 0.05 mg/mL in data set [1] (aqueous buffer, pH 7.4 (0.1M phosphate buffer)); above 15 mg/mL in data set [1] (aqueous buffer, pH 8.5 (0.01M TRIS buffer)); 4.6 mg/mL in data set [1] (saline or isotonic, 0.9% saline). The solubility in data set [1] (simulated gastric fluid, pH 1 (0.1M HCl)) was above 15 mg/mL; in data set [2] (Ethanol (EtOH)), above 13.7 mg/mL; in data set [2] (Glycerol) it was above 19.4 mg/mL; in data set [2] (PEG400) it was above 34.1 mg/mL; in data set [2] (Propylene glycol(PG)), above 18.4 mg/mL. Further, the “aqueous solubility compared with anidulafungin (in words)” value in data set [1] (over a broad pH range) was “dramatically greater aqueous solubility than anidulafungin”. Besides, the “activity against Aspergillus strains relative to anidulafungin (MEC and MIC)” value in data set [3] is given as “retain their activity”.

For the compound `CCCCCOc1ccc(-c2ccc(-c3ccc(C(=O)N[C@H]4C[C@@H](O)C(NCC[N+](C)(C)C)NC(=O)C5[C@@H](O)[C@@H](C)CN5C(=O)C([C@@H](C)O)NC(=O)C([C@H](O)[C@@H](O)c5ccc(O)cc5)NC(=O)C5C[C@@H](O)CC5C(=O)C([C@@H](C)O)NC4=O)cc3)cc2)cc1` (some centres unmarked) [compound 16], the “activity against Aspergillus strains relative to anidulafungin (MEC and MIC)” value in data set [3] is listed as “retain their activity”.

In general, solubility refers to the concentration that dissolves in the medium under given conditions.

The values are drawn from patent publication US9217014B2, “Antifungal agents and uses thereof” (Cidara Therapeutics, Inc., priority 2011, dated 2015).
